From patent publication US20090155209A1, “NOVEL MACROCYCLIC INHIBITORS OF HEPATITIS C VIRUS REPLICATION” (priority 2007, published 2009)

Legend:
NS3-NS4 [1] = target: T1, NS3-NS4 (Hepatitis C virus genotype 1a, UniProt P27958); assay: NS3-NS4 activity, IC50 (Example 37, Table 8); type: biochemical
NS3-NS4 [2] = target: T1, NS3-NS4; assay: cell-based; conditions: EC50, NS3-NS4 activity

T1 sequence (P27958 1027-1657): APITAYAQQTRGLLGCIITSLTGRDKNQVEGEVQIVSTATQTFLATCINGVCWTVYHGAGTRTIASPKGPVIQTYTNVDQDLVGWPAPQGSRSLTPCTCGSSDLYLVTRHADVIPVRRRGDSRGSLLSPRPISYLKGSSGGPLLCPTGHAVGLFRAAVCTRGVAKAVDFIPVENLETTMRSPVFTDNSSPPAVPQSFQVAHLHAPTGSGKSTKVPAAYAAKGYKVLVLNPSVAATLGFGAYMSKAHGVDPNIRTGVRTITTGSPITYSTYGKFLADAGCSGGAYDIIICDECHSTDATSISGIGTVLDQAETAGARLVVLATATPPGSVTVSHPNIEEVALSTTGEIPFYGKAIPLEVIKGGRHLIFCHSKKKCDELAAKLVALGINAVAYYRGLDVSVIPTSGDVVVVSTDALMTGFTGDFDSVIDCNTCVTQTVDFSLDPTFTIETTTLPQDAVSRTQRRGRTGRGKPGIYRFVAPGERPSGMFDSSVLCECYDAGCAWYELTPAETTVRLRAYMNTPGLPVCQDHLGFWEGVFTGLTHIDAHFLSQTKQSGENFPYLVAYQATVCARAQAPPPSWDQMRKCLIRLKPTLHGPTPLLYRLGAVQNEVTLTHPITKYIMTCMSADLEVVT
T1 sequence (P27958 1658-1711): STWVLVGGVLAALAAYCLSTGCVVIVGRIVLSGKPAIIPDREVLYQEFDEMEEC

Compound	IC50 (NS3-NS4 [1]) [nM]	EC50 (NS3-NS4 [2]) [nM]
CC(C)(C)OC(=O)N[C@H]1CCCCC/C=C\[C@@H]2C[C@@]2(C(=O)NS(=O)(=O)Cc2cccc(C(F)(F)F)c2)NC(=O)[C@@H]2C[C@@H](OC(=O)N3Cc4cccc(F)c4C3)CN2C1=O [Compound 518]	< 100	100 to 1000
CC(C)(C)OC(=O)N[C@H]1CCCCC/C=C\[C@@H]2C[C@@]2(C(=O)NS(=O)(=O)c2cccnc2Cl)NC(=O)[C@@H]2C[C@@H](OC(=O)N3Cc4cccc(F)c4C3)CN2C1=O [Compound 529]	< 100	< 100
O=C1NC2(C(=O)NS(=O)(=O)C3CC3)C[C@H]2/C=C\CCCCC[C@H](Nc2nc(-c3ccc(F)cc3)cs2)C(=O)N2C[C@H](OC(=O)N3Cc4cccc(F)c4C3)C[C@@H]12 (some centres unmarked) [Compound 224]	< 100	< 100
CC(C)(C)OC(=O)N[C@H]1CCCCC/C=C\[C@@H]2C[C@@]2(C(=O)NS(=O)(=O)Cc2ccc(Cl)cc2)NC(=O)[C@@H]2C[C@@H](OC(=O)N3Cc4cccc(F)c4C3)CN2C1=O [Compound 512]	< 100	< 100
CCCS(=O)(=O)NC(=O)[C@@]12C[C@H]1CCCCCCC[C@H](NC(=O)OC(C)(C)C)C(=O)N1C[C@H](OC(=O)N3Cc4cccc(F)c4C3)C[C@H]1C(=O)N2 [Compound 655]	< 100	< 100
Cc1csc(S(=O)(=O)NC(=O)[C@@]23C[C@H]2CCCCCCC[C@H](NC(=O)OC(C)(C)C)C(=O)N2C[C@H](OC(=O)N4Cc5cccc(F)c5C4)C[C@H]2C(=O)N3)c1 [Compound 645]	< 100	< 100
O=C(N[C@H]1CCCCC/C=C\[C@@H]2C[C@@]2(C(=O)NS(=O)(=O)C2CC2)NC(=O)[C@@H]2C[C@@H](OC(=O)N3Cc4cccc(F)c4C3)CN2C1=O)OC1(C2CC2)CC1 [Compound 446]	< 100	< 100
N#Cc1ccc(-c2csc(N[C@H]3CCCCC/C=C\[C@@H]4C[C@@]4(C(=O)NS(=O)(=O)C4CC4)NC(=O)[C@@H]4C[C@@H](OC(=O)N5Cc6cccc(F)c6C5)CN4C3=O)n2)cc1 [Compound 211]	< 100	< 100
CC(C)(C)OC(=O)N[C@H]1CCCCC/C=C\[C@@H]2C[C@@]2(C(=O)NS(=O)(=O)Cc2cc(F)ccc2F)NC(=O)[C@@H]2C[C@@H](OC(=O)N3Cc4cccc(F)c4C3)CN2C1=O [Compound 520]	< 100	< 100
CC(C)(C)OC(=O)N[C@H]1CCCCC/C=C\[C@@H]2C[C@@]2(C(=O)NS(=O)(=O)c2ccc(F)c(F)c2)NC(=O)[C@@H]2C[C@@H](OC(=O)N3Cc4cccc(F)c4C3)CN2C1=O [Compound 315]	< 100	< 100
CCC(C)(C)OC(=O)N[C@H]1CCCCC/C=C\[C@@H]2C[C@@]2(C(=O)NS(=O)(=O)c2cc(Cl)sc2Cl)NC(=O)[C@@H]2C[C@@H](OC(=O)N3Cc4cccc(F)c4C3)CN2C1=O [Compound 344]	< 100	< 100
CC(C)CS(=O)(=O)NC(=O)[C@@]12C[C@H]1CCCCCCC[C@H](NC(=O)OC(C)(C)C)C(=O)N1C[C@H](OC(=O)N3Cc4cccc(F)c4C3)C[C@H]1C(=O)N2 [Compound 656]	< 100	< 100
CN(C(=O)N[C@H]1CCCCC/C=C\[C@@H]2C[C@@]2(C(=O)NS(=O)(=O)C2CC2)NC(=O)[C@@H]2C[C@@H](OC(=O)N3Cc4cccc(F)c4C3)CN2C1=O)C1CCCC1 [Compound 425]	< 100	< 100
O=C(N[C@H]1CCCCC/C=C\[C@@H]2C[C@@]2(C(=O)NS(=O)(=O)C2CC2)NC(=O)[C@@H]2C[C@@H](OC(=O)N3Cc4ccc(F)cc4C3)CN2C1=O)OC1CCOCC1 [Compound 410]	< 100	100 to 1000
CC(C)(C)OC(=O)N[C@H]1CCCCC/C=C\[C@@H]2C[C@@]2(C(=O)NS(=O)(=O)c2ccc(Cl)cc2)NC(=O)[C@@H]2C[C@@H](OC(=O)N3Cc4cccc(F)c4C3)CN2C1=O [Compound 333]	< 100	< 100
CC(=O)O[C@@H]1C[C@H]2C(=O)N[C@]3(C(=O)NS(=O)(=O)C4CC4)C[C@H]3/C=C\CCCCC[C@H](Nc3ncc(-c4ccccc4)s3)C(=O)N2C1 [Compound 203, (2R,6S,13aS,14aR,16aS,Z)-14a-(cyclopropylsulfonylcarbamoyl)-5,16-dioxo-6-(5-phenylthiazol-2-ylamino)-1,2,3,5,6,7,8,9,10,11,13a,14,14a,15,16,16a-hexadecahydrocyclopropa[e]pyrrolo[1,2-a][1,4]diazacyclopentadecin-2-yl acetate]	< 100	1000 to 10000
CCN(C(=O)N[C@H]1CCCCC/C=C\[C@@H]2C[C@@]2(C(=O)NS(=O)(=O)C2CC2)NC(=O)[C@@H]2C[C@@H](OC(=O)N3Cc4cccc(F)c4C3)CN2C1=O)C(C)(C)C [Compound 423]	< 100	< 100

Compound	IC50 (NS3-NS4 [1]) [nM]	EC50 (NS3-NS4 [2]) [nM]
CC(C)(C)OC(=O)N[C@H]1CCCCC/C=C\[C@@H]2C[C@@]2(C(=O)NS(=O)(=O)C2(C)CC2)NC(=O)[C@@H]2C[C@@H](OC(=O)N3Cc4cccc(Cl)c4C3)CN2C1=O [Compound 445]	< 100	< 100
CC(C)(C)OC(=O)N[C@H]1CCCCC/C=C\[C@@H]2C[C@@]2(C(=O)NOc2ccc(-c3ccccc3)cc2)NC(=O)[C@@H]2C[C@@H](OC(=O)N3Cc4cccc(F)c4C3)CN2C1=O [Compound 710]	< 100	1000 to 10000
CN(C(=O)N[C@H]1CCCCC/C=C\[C@@H]2C[C@@]2(C(=O)NS(=O)(=O)c2ccccc2)NC(=O)[C@@H]2C[C@@H](OC(=O)N3Cc4cccc(F)c4C3)CN2C1=O)C(C)(C)C [Compound 303, (2R,6S,13aS,14aR,16aS,Z)-6-(3-tert-butyl-3-methylureido)-5,16-dioxo-14a-(phenylsulfonylcarbamoyl)-1,2,3,5,6,7,8,9,10,11,13a,14,14a,15,16,16a-hexadecahydrocyclopropa[e]pyrrolo[1,2-a][1,4]diazacyclopentadecin-2-yl 4-fluoroisoindoline-2-carboxylate]	< 100	< 100
CCC(C)(C)OC(=O)N[C@H]1CCCCC/C=C\[C@@H]2C[C@@]2(C(=O)NS(=O)(=O)C2CC2)NC(=O)[C@@H]2C[C@@H](OC(=O)N3Cc4cccc(F)c4C3)CN2C1=O [Compound 405, (2R,6S,13aS,14aR,16aS,Z)-14a-(cyclopropylsulfonylcarbamoyl)-5,16-dioxo-6-(tert-pentyloxycarbonylamino)-1,2,3,5,6,7,8,9,10,11,13a,14,14a,15,16,16a-hexadecahydrocyclopropa[e]pyrrolo[1,2-a][1,4]diazacyclopentadecin-2-yl 4-fluoroisoindoline-2-carboxylate]	< 100	< 100
Cc1ccccc1S(=O)(=O)NC(=O)[C@@]12C[C@H]1/C=C\CCCCC[C@H](NC(=O)N(C)C(C)(C)C)C(=O)N1C[C@H](OC(=O)N3Cc4cccc(F)c4C3)C[C@H]1C(=O)N2 [Compound 358]	< 100	< 100
Cc1ccc(S(=O)(=O)NC(=O)[C@@]23C[C@H]2/C=C\CCCCC[C@H](NC(=O)OC(C)(C)C)C(=O)N2C[C@H](OC(=O)N4Cc5cccc(F)c5C4)C[C@H]2C(=O)N3)o1 [Compound 533]	< 100	< 100
O=C1N[C@]2(C(=O)NS(=O)(=O)C3CC3)C[C@H]2/C=C\CCCCC[C@H](Nc2nc(-c3ccncc3)cs2)C(=O)N2C[C@H](OC(=O)N3Cc4cccc(F)c4C3)C[C@@H]12 [Compound 210]	< 100	< 100
CC(C)(C)OC(=O)N[C@H]1CCCCC/C=C\[C@@H]2C[C@@]2(C(=O)NOc2cccc(F)c2)NC(=O)[C@@H]2C[C@@H](OC(=O)N3Cc4cccc(F)c4C3)CN2C1=O [Compound 704]	< 100	1000 to 10000
Cc1ccccc1S(=O)(=O)NC(=O)[C@@]12C[C@H]1/C=C\CCCCC[C@H](NC(=O)OC1CCC1)C(=O)N1C[C@H](OC(=O)N3Cc4cccc(F)c4C3)C[C@H]1C(=O)N2 [Compound 338]	< 100	< 100
Cc1cccc(ONC(=O)[C@@]23C[C@H]2/C=C\CCCCC[C@H](NC(=O)OC(C)(C)C)C(=O)N2C[C@H](OC(=O)N4Cc5cccc(F)c5C4)C[C@H]2C(=O)N3)c1 [Compound 702]	< 100	1000 to 10000
CC(C)(C)OC(=O)N[C@H]1CCCCC[C@@H]2C[C@@H]2[C@@H]2C[C@@]2(C(=O)NS(=O)(=O)C2(C)CC2)NC(=O)[C@@H]2C[C@@H](OC(=O)N3Cc4cccc(F)c4C3)CN2C1=O [Compound 901]	< 100	< 100
CC(C)(C)OC(=O)N[C@H]1CCCCC/C=C\[C@@H]2C[C@@]2(C(=O)NS(=O)(=O)Cc2cc(F)cc(F)c2)NC(=O)[C@@H]2C[C@@H](OC(=O)N3Cc4cccc(F)c4C3)CN2C1=O [Compound 523]	< 100	100 to 1000
O=C(N[C@H]1CCCCC/C=C\[C@@H]2C[C@@]2(C(=O)NS(=O)(=O)C2CC2)NC(=O)[C@@H]2C[C@@H](OC(=O)N3Cc4cccc(Cl)c4C3)CN2C1=O)OC1CCC1 [Compound 433]	< 100	< 100
O=C1N[C@]2(C(=O)NS(=O)(=O)C3CC3)C[C@H]2/C=C\CCCCC[C@H](NC(=O)N2CC(F)(F)C2)C(=O)N2C[C@H](OC(=O)N3Cc4cccc(F)c4C3)C[C@@H]12 [Compound 418]	< 100	< 100
Cc1csc(S(=O)(=O)NC(=O)[C@@]23C[C@H]2/C=C\CCCCC[C@H](NC(=O)OC(C)(C)C)C(=O)N2C[C@H](OC(=O)N4Cc5cccc(F)c5C4)C[C@H]2C(=O)N3)c1 [Compound 539]	< 100	< 100
O=C1N[C@]2(C(=O)NS(=O)(=O)C3CC3)C[C@H]2/C=C\CCCCC[C@H](Nc2nc(-c3ccc(F)cn3)cs2)C(=O)N2C[C@H](OC(=O)N3Cc4cccc(F)c4C3)C[C@@H]12 [Compound 225]	< 100	< 100
O=C(N[C@H]1CCCCC/C=C\[C@@H]2C[C@@]2(C(=O)NS(=O)(=O)c2ccc(Cl)cc2)NC(=O)[C@@H]2C[C@@H](OC(=O)N3Cc4cccc(F)c4C3)CN2C1=O)OC1CCC1 [Compound 339]	< 100	< 100
